{
  "source": "patent US12137687B2",
  "about": "“Method for inducing acquired resistance in a plant” (HEINRICH HEINE UNIVERSITAET DUESSELDORF, priority 2017, dated 2024)",
  "key": {"[1]": {"tested_on": "Pseudomonas syringae pv maculicola ES4326 (Psm lux)", "format": "in vivo"}, "[2]": {"tested_on": "Hyaloperonospora arabidopsidis (Hpa) isolate Noco2", "experiment": "Arabidopsis thaliana resistance to Hpa after Pip/NHP pre-treatment (symptoms, Trypan blue microscopy)", "format": "in vivo", "details": "for symptomology of leaves (photographs): 7 days after inoculation; for disease development in the SA-deficient mutant: sid2 mutant"}, "[3]": {"tested_on": "Pseudomonas syringae pv. tabaci (DSM 1856)", "experiment": "Tobacco (Nicotiana tabacum cv Xanthi) resistance to Pseudomonas tabaci after soil-applied Pip/NHP", "details": "for disease symptoms (yellowing and wilting) of infiltrated 1° leaves: tobacco 4-leaf stage, 40 ml of 1 mM (40 μmol) via soil 1 d prior to inoculation, 48 h after infection", "experimental": "Plant pots with tobacco at the 4-leaf stage (BBCH growth stage 1004) were supplied with either 40 ml of H2O (mock-treatment; left) or 40 ml of 1 mM Pip or NHP (=40 μmol) 1 d prior to inoculation with a suspension (OD600=0.005, O/N-culture grown at 18° C.) of Pseudomonas tabaci via pressure infiltration. […] Infiltrated 1° leaves from representative plants were cut and photographed 48 h after the initial infection."}, "[4]": {"details": "1° leaves pressure-infiltrated with 1 mM NHP 24 h before inoculation"}},
  "note": "Like-named read-outs stand apart in the source and are kept apart here.",
  "data": [
    {"compound": "O=C(O)C1CCCCN1O", "note": "(stereo not shown) [NHP, 1-hydroxypiperidine-2-carboxylic acid]", "values": [
      {"measurement": "reduction of bacterial numbers, 2° leaves inoculated (systemic)", "setting": "[1]; [4]", "result": "more than 15 fold"},
      {"measurement": "reduction of bacterial numbers, Psm lux infiltrated in the pre-treated 1° leaves (local)", "setting": "[1]; [4]", "result": "about 8 fold"},
      {"measurement": "Resistance effect after NHP pre-treatment", "setting": "[1]; Arabidopsis thaliana, Pseudomonas syringae", "result": "Yes"},
      {"measurement": "attenuation of Psm lux growth", "setting": "[1]; Col-0, ald1, and fmo1 (all genotypes), 10 μmol via soil 1 d before inoculation, 60 hpi", "result": "at least one order of magnitude"},
      {"measurement": "chlorotic symptom development", "setting": "[1]; Col-0, ald1, and fmo1, 10 μmol via soil, 72 hpi", "result": "lack of the chlorotic symptom development"},
      {"measurement": "reduction in bacterial numbers compared to mock-treated plants", "setting": "[1]; Col-0, 10 μmol NHP via soil 1 day before infection, 54 h post inoculation", "result": "about 9 fold"},
      {"measurement": "reduction in bacterial numbers compared to mock-treated plants", "setting": "[1]; Col-0, 10 μmol NHP via soil 3 days before infection, 54 h post inoculation", "result": "about 6 fold"},
      {"measurement": "reduction in bacterial numbers compared to mock-treated plants", "setting": "[1]; Col-0, 10 μmol NHP via soil 7 days before infection, 54 h post inoculation", "result": "about 3 fold"},
      {"measurement": "further reduction of bacterial growth compared to plants treated with 10 μmol of NHP", "setting": "[1]; Col-0, 100 μmol NHP per pot via soil, 54 h post inoculation", "result": 2, "unit": "fold"},
      {"measurement": "reduction of bacterial numbers compared to control plants", "setting": "[1]; Col-0, 0.1 mM NHP (1 μmol/pot) via soil 24 h prior to Psm lux, 54 h post inoculation", "result": "about 2 fold"},
      {"measurement": "reduction of bacterial numbers compared to mock-treated plants", "setting": "[1]; Col-0, 10 mM NHP (100 μmol per pot) via soil 24 h prior to Psm lux, 54 h post inoculation", "result": "about 20 fold"},
      {"measurement": "lower levels of bacteria in leaves compared to control plants", "setting": "[1]; Col-0, 10 ml of 1 mM NHP (10 μmol per pot) via soil 24 h prior to Psm lux, 54 h post inoculation", "result": "about 11 fold"},
      {"measurement": "disease symptoms of leaves", "setting": "[1]; Col-0, 10 ml of 1 mM NHP via soil 24 h prior to Psm lux", "result": "largely symptom-free"},
      {"measurement": "reduction of bacterial numbers in Psm lux-inoculated 1° leaves", "setting": "[1]; Col-0, foliar spray of 1 mM NHP with 0.005% Silwet 24 h before inoculation, 54 h post inoculation", "result": "about 12 fold"},
      {"measurement": "difference in bacterial numbers between control and treated plants", "setting": "[1]; Col-0 wild-type (experiment with sid2), 10 μmol via soil, 60 hpi", "result": "ten-fold difference"},
      {"measurement": "bacterial numbers in leaves lower than those of naive plants", "setting": "[1]; SA-deficient sid2 mutant, 10 μmol via soil, 60 hpi", "result": "about 2.5 fold"},
      {"measurement": "Resistance effect after NHP pre-treatment", "setting": "[2]; Arabidopsis thaliana, Hyaloperonospora arabidopsidis", "result": "Yes"},
      {"measurement": "symptomology of leaves (photographs)", "setting": "[2]; Col-0, ald1, and fmo1, 10 μmol via soil", "result": "completely symptom-free"},
      {"measurement": "development of oospores", "setting": "[2]; Col-0, 10 μmol via soil, 7 dpi", "result": "completely inhibited"},
      {"measurement": "examined leaves that fully prohibited the formation of intercellular hyphae", "setting": "[2]; Col-0, 10 μmol via soil, 7 dpi", "result": "About 70%"},
      {"measurement": "macroscopic mildew symptoms", "setting": "[2]; Col-0, 10 μmol via soil, 7 dpi", "result": "completely free of mildew symptoms"},
      {"measurement": "occurrence/development of conidiophores on leaves", "setting": "[2]; Col-0, 10 μmol via soil, 7 dpi", "result": "completely inhibited"},
      {"measurement": "disease development in the SA-deficient mutant", "setting": "[2]; 10 μmol via soil", "result": "not able to fully prevent disease development"},
      {"measurement": "Resistance effect after NHP pre-treatment", "setting": "[3]; Nicotiana tabacum cv. Xanthi, Pseudomonas syringae pv. tabaci (DSM 1856)", "result": "Yes"},
      {"measurement": "disease symptoms (yellowing and wilting) of infiltrated 1° leaves", "setting": "[3]", "result": "almost absent"}
    ]},
    {"compound": "O=C(O)[C@@H]1CCCCN1", "note": "[Pip, (S)-piperidine-2-carboxylic acid]", "values": [
      {"measurement": "bacterial multiplication in leaves of treated compared with control plants", "setting": "[1]; Col-0 and ald1, 10 μmol via soil 1 d before Psm lux, 60 hpi", "result": "ten-fold lower"},
      {"measurement": "chlorotic leaf symptoms", "setting": "[1]; Col-0 and ald1, 10 μmol via soil, 72 hpi", "result": "suppression of the development of chlorotic leaf symptoms"},
      {"measurement": "average length of intercellular hyphae growing inside leaves", "setting": "[2]; Col-0, 10 μmol via soil 24 h before Hpa, 7 dpi", "result": "about 50 mm cm^−2"},
      {"measurement": "development of oospores", "setting": "[2]; Col-0, 10 μmol via soil, 7 dpi", "result": "fully prevented"},
      {"measurement": "intercellular hyphae closely encased by dead host cells (trailing necrosis)", "setting": "[2]; Col-0, 10 μmol via soil, 7 dpi", "result": "about 60%"},
      {"measurement": "length of intercellular hyphae as share of the value for non-pretreated Col-0 plants", "setting": "[2]; Col-0, 10 μmol via soil, 7 dpi", "result": "~10", "unit": "%"},
      {"measurement": "macroscopic mildew symptoms", "setting": "[2]; Col-0, 10 μmol via soil, 7 dpi", "result": "largely symptom-free"},
      {"measurement": "occurrence/development of conidiophores on leaves", "setting": "[2]; Col-0, 10 μmol via soil, 7 dpi", "result": "greatly diminished"},
      {"measurement": "symptomology of leaves (photographs)", "setting": "[2]; Col-0 and ald1, 10 μmol via soil", "result": "only sporadically show small areas of visible mildew symptoms"},
      {"measurement": "effect on the resistance of fmo1 to Hpa", "setting": "[2]; fmo1 mutant, 10 μmol via soil", "result": "no effect"},
      {"measurement": "disease development in the SA-deficient mutant", "setting": "[2]; 10 μmol via soil", "result": "not able to fully prevent disease development"},
      {"measurement": "disease symptoms (yellowing and wilting) of infiltrated 1° leaves", "setting": "[3]", "result": "severely reduced"}
    ]}
  ]
}
